The values that follow come from publication PMC7876453, “Targeting Indoleamine 2,3-Dioxygenase in Cancer Models Using the Novel Small Molecule Inhibitor NTRC 3883-0” (Frontiers in Immunology, 2021).

One assay has as its target T1, A375 + IFNγ (hIDO1) (Homo sapiens, UniProt P14902).
T1 construct: host or cells: A375 cells stimulated with IFNγ
In words: cell-based assay, Trp-catabolizing activity in IFNγ-stimulated A375 cells. The following applies: IFNγ-stimulated A375 human melanoma cells.

In another assay the target is T2, human IDO1 (Homo sapiens, UniProt P14902).
T2 construct: Full-length recombinant human and mouse IDO1 were expressed in Escherichia coli with a hexahistidine tag at the N-terminus; hexahistidine (N); made in house; host or cells: Escherichia coli
In words: human IDO1 biochemical assay (NFK GreenScreen).

Another assay concerns the target T3, human TDO (Homo sapiens, UniProt P48775).
T3 construct: hexahistidine (C); made in house; host or cells: Escherichia coli
In words: human TDO biochemical assay (NFK GreenScreen). The note with it: biochemical; highest tested concentration 31.6 µM. As for the experimental part: Full-length recombinant human and mouse IDO1 were expressed in Escherichia coli with a hexahistidine tag at the N-terminus, and purified by affinity chromatography to > 95% purity, as described ([8]). Human and mouse TDO containing a C-terminal hexahistidine tag were analogously expressed and purified to > 95% purity ([8]). The inhibitory activity of compounds was determined with the NFK GreenScreen assay technology under the conditions as described ([8]), except for the reaction buffer for IDO1, which was replaced by 50 mM NaH2PO4, pH 7.0, supplemented with 0.01% Tween-20 and 1% glycerol. Inhibition of the CYP3A4 and CYP2D6 enzymes was determined with the P450-Glo™ Screening System with Luciferin-IPA (Promega, #V9920 and V9890). For determination of IC50 values, the effect of inhibitors was determined in 10-point duplicate dose-response curves. Graphs were fitted to a four-parameter logistics equation in XLfit (ID Business Solutions, Ltd., Guildford, UK) from which IC50 values were calculated.

For assay [1], the system named is CT26 cells implanted subcutaneously into female BALB/c mice. In words: CT26 mouse model, first study (ProQinase). The assay is classed as in vivo. The following applies: 50 mg/kg NTRC 3748-0 b.i.d., 100 mg/kg epacadostat q.d. As for the experimental part: For the first CT26 mouse model study, performed at ProQinase, 5 × 10^5 CT26 cells were implanted subcutaneously into female BALB/c mice on day 0. […] Tumor growth was monitored using caliper measurement 2 times weekly. The study was terminated at day 22 based on the tumor burden. Tumors and plasma were sampled 2 h post last dose.
Tissues were homogenized in PBS at a ratio of 1 mg per 10 μl using micro pellet pestles mounted on a Micro-Tube Homogenizer System (Thomas Scientific). After centrifugation, proteins were removed from the homogenized tissue supernatants and plasma samples by precipitation with methanol. The concentrations of inhibitor, Trp and Kyn were determined by LC-MS/MS.

The next assay concerns TDO. The following applies: cited from earlier work.
In another assay the test system is IDO1. The note with it: cited from earlier work.

A value given as a limit tells only on which side of the number the result lay.

T1 sequence (P14902 whole entry): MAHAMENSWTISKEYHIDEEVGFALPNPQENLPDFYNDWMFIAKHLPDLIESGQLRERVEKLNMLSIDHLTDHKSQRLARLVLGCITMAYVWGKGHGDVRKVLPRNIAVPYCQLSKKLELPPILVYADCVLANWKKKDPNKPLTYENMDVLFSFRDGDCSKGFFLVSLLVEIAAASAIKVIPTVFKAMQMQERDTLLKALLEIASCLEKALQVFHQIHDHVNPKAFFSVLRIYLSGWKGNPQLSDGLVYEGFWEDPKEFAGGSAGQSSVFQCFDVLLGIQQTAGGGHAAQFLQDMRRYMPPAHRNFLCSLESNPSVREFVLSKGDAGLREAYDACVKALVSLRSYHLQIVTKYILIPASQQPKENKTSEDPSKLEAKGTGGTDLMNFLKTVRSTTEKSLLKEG
T2 sequence (P14902 whole entry): as above
T3 sequence (P48775 whole entry): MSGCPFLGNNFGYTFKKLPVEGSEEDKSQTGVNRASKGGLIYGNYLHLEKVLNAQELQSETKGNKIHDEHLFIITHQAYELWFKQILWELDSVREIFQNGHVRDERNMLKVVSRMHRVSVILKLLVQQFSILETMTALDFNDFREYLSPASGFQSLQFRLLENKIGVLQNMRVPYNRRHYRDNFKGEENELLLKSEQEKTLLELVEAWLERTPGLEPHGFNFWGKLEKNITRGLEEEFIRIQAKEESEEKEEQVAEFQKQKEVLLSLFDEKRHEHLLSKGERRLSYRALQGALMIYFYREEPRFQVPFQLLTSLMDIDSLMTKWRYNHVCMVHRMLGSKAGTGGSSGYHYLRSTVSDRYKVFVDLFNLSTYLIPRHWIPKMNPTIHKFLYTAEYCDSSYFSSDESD

Usually IC50 stands for the point on the concentration scale where inhibition reaches its midpoint. For the compound `O=C1CN(C(=O)c2ccccc2Cl)C(c2cccc(Br)c2)N1O` (centres unmarked) [Compound 3f], the figures for the IC50 on A375 + IFNγ (hIDO1) and against human IDO1 (human IDO1 biochemical assay) were 4.6 µM and 0.784 µM, respectively.
On the same counts, the results for `O=C1CN(C(=O)c2ccccc2Br)C(c2cccc(Br)c2)N1O` (centres unmarked) [Compound 3g] are 12.5 µM and 1.78 µM.
In the same order, the values of `O=C1CN(C(=O)c2cccc(F)c2)C(c2cccc(Br)c2)N1O` (centres unmarked) [Compound 3b] are 5.24 µM and 0.91 µM.
On the same counts, the results for `O=C1CN(C(=O)c2ccccc2)C(c2ccccc2)N1O` (centres unmarked) [Compound 2a] are > 31.6 µM and > 31.6 µM.
In the case of `N#Cc1cccc(C2N(O)C(=O)CN2C(=O)c2ccccc2)c1` (centres unmarked) [Compound 2f], the values for the IC50 on A375 + IFNγ (hIDO1) and on human IDO1 (human IDO1 biochemical assay) were > 31.6 µM and 17.9 µM, respectively.
As to `O=C1CN(C(=O)c2ccccc2)C(C2CCCCC2)N1O` (centres unmarked) [Compound 2e], the IC50 at A375 + IFNγ (hIDO1) and against human IDO1 (human IDO1 biochemical assay) was > 31.6 µM each time.
On to `O=C1CN(C(=O)c2ccccc2)C(c2cccc(Br)c2)N1O` (centres unmarked) [Compound 1], for which, at human TDO, the “activity on human TDO (in words)” value was “inactive”. Further, the IC50 at A375 + IFNγ (hIDO1) is 4.52 µM; at human IDO1 (biochemical), 1.2 µM; against human IDO1 (human IDO1 biochemical assay) it was 1.22 µM.
As for `O=C1CN(C(=O)c2ccccc2)C(c2cccc(C(F)(F)F)c2)N1O` (centres unmarked) [Compound 2g], the IC50 worked out at 5.29 µM at A375 + IFNγ (hIDO1) and 2.46 µM at human IDO1 (human IDO1 biochemical assay).
Consider `O=C1CN(C(=O)c2c(F)cccc2F)C(c2cccc(Br)c2)N1O` (centres unmarked) [Compound 3j], for which, in assay [1] (LC-MS/MS, 2 h post last dose), the “Kyn levels in the tumor” value is reported as “considerable reduction of Kyn levels”. Besides, the tumor growth entry in assay [1] (p.o. from day 8) is reported as “inhibition of tumor growth”. Besides, the IC50 on A375 + IFNγ (hIDO1) came out at 0.589 µM; against human IDO1 (human IDO1 biochemical assay) it was 0.198 µM.
For `O=C1CN(C(=O)c2ccccc2)C(c2ccccc2Br)N1O` (centres unmarked) [Compound 2c], the IC50 on A375 + IFNγ (hIDO1) and at human IDO1 (human IDO1 biochemical assay) was > 31.6 µM each time.
On to `O=C1CN(C(=O)c2ccccc2F)C(c2cccc(Br)c2)N1O` (centres unmarked) [Compound 3c], for which the IC50 at A375 + IFNγ (hIDO1) came out at 1.15 µM; against human IDO1 (human IDO1 biochemical assay), 0.479 µM.
As for `O=C1CN(C(=O)c2ccc(F)cc2)C(c2cccc(Br)c2)N1O` (centres unmarked) [Compound 3a], the IC50 came out at 11 µM at A375 + IFNγ (hIDO1) and 2.17 µM against human IDO1 (human IDO1 biochemical assay).
Regarding `O=C1CN(C(=O)c2cc(F)ccc2F)C(c2cccc(Br)c2)N1O` (centres unmarked) [Compound 3h], the IC50 on A375 + IFNγ (hIDO1) amounted to 2.83 µM; on human IDO1 (human IDO1 biochemical assay) it was 0.6 µM.
As to `O=C1CN(C(=O)c2ccccc2)C(c2cccc(Cl)c2)N1O` (centres unmarked) [Compound 2b], the IC50 came out at 5.22 µM on A375 + IFNγ (hIDO1) and 2.38 µM against human IDO1 (human IDO1 biochemical assay).
Consider `O=C1CN(C(=O)c2ccccc2)C(c2ccc(Br)cc2)N1O` (centres unmarked) [Compound 2d], for which the IC50 at A375 + IFNγ (hIDO1) and against human IDO1 (human IDO1 biochemical assay) was > 31.6 µM in each case.
As to `O=C1CN(C(=O)c2c(F)cccc2F)[C@@H](c2cccc(Br)c2)N1O` [Compound 3k], the results for the IC50 on A375 + IFNγ (hIDO1) and against human IDO1 (human IDO1 biochemical assay) were 4.59 µM and 2.17 µM, respectively.
Turning to `O=C1CN(C(=O)c2ccc(F)cc2F)C(c2cccc(Br)c2)N1O` (centres unmarked) [Compound 3i], the IC50 at A375 + IFNγ (hIDO1) stood at 2.14 µM; against human IDO1 (human IDO1 biochemical assay) it was 0.582 µM.
As to `N[C@@H](Cc1c[nH]c2ccccc12)C(=O)O` [Trp, L-tryptophan], in the assay with TDO, the “K M,Trp of TDO” value is reported as 190 µM. The “K M,Trp of IDO1” value with IDO1 was 6 µM.
On to `COc1ccccc1C(=O)N1CC(=O)N(O)C1c1cccc(Br)c1` (centres unmarked) [Compound 3e], for which the IC50 at A375 + IFNγ (hIDO1) and at human IDO1 (human IDO1 biochemical assay) was > 31.6 µM throughout.
As to `Cc1ccccc1C(=O)N1CC(=O)N(O)C1c1cccc(Br)c1` (centres unmarked) [Compound 3d], the IC50 was found to be 21.7 µM at A375 + IFNγ (hIDO1) and 4.02 µM at human IDO1 (human IDO1 biochemical assay).
